According to ChEMBL document CHEMBL5316350, “Novel Pyrido[2',1':2,3]imidazo[4,5-c]quinoline Derivative Selectively Poisons Leishmania donovani Bisubunit Topoisomerase 1 to Inhibit the Antimony-Resistant Leishmania Infection in Vivo” (J Med Chem, 2023):
Active and inactive are the calls of the source. No cut-off for these calls is given here.

Tests used:
Leishmania donovani [1] = test: Induction of apoptosis in Leishmania donovani Ag83 promastigotes assessed as late apoptotic cells measured at 5 uM after 24 hrs by Annexin V-FITC/PI staining based flow cytometric analysis (reference value: 0.1%); assay type: functional
Leishmania donovani [2] = test: Induction of apoptosis in Leishmania donovani Ag83 promastigotes assessed as DNA break accumulation measured at 5 uM after 15 mins by TUNEL staining based assay; assay type: functional, organism-based
DNA topoisomerase I = target: T1, DNA topoisomerase I (Leishmania donovani (strain BPK282A1), UniProt E9BRC0); test: Inhibition of recombinant Top1 in Leishmania donovani Ag83 whole cell extract assessed as relaxation of supercoiled pBluescript SK(+) DNA measured by agarose gel electrophoresis analysis
T1 sequence (E9BRC0 whole entry): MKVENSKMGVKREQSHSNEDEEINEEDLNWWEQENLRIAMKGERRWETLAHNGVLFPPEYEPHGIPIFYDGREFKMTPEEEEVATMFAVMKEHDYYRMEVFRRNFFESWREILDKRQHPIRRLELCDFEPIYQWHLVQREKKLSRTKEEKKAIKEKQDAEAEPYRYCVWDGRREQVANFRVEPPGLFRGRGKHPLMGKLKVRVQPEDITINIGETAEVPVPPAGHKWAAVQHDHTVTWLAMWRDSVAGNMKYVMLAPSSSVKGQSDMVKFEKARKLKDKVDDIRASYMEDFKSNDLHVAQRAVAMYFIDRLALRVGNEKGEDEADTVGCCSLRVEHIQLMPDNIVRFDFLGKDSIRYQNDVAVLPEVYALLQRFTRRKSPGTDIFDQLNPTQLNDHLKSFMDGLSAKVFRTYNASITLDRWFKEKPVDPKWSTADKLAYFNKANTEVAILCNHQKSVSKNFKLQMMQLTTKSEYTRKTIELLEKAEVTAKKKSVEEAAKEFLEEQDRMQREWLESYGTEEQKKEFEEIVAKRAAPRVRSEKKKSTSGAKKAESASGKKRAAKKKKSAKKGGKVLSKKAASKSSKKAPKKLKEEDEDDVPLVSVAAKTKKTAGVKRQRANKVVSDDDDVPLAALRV

[3] = target: T2, DNA topoisomerase I (Leishmania donovani (strain BPK282A1)) (UniProt E9BRC0); test: Inhibition of recombinant Top1 in Leishmania donovani Ag83 whole cell extract assessed as relaxation of supercoiled pBluescript SK(+) DNA at 10 uM incubated for 30 mins by agarose gel electrophoresis analysis relative to control
T2 sequence (whole entry): T1 sequence (E9BRC0 whole entry)

Leishmania donovani [4] = test: Induction of apoptosis in Leishmania donovani Ag83 promastigotes assessed as late apoptotic cells measured at 5 uM after 12 hrs by Annexin V-FITC/PI staining based flow cytometric analysis (reference value: 0.1%); assay type: functional
Leishmania donovani [5] = test: Antileishmanial activity against antimony resistant Leishmania donovani BHU575 amastigotes infected in BALB/c mouse macrophage assessed as cell viability measured after 48 hrs infection by propidium iodide staining analysis relative to control; assay type: functional, organism-based; details: BHU575, 48 h
Leishmania donovani [6] = test: Induction of cell cycle arrest in Leishmania donovani Ag83 promastigotes assessed as decrease in accumulation of cells in G0/G1 phase at 5 uM measured after 12 hrs by PI staining based flow cytometry (reference value: 65.1%); assay type: functional; parameters: scale not given: the % may be the effect or the level left
[7] = Toxicity in BALB/c mouse infected with Leishmania donovani Ag83 promastigotes assessed as change in body weight treated after 3 weeks of infection at 5 to 10 mg/kg, ip twice a week for 3 weeks; assay type: organism-based; details: in vivo, dose 5-10 mg/kg
Leishmania donovani [8] = test: Induction of apoptosis in Leishmania donovani Ag83 promastigotes assessed as necrotic cells measured at 5 uM after 12 hrs by Annexin V-FITC/PI staining based flow cytometric analysis; assay type: functional, organism-based
Leishmania donovani [9] = test: Antileishmanial activity against Leishmania donovani Ag83 promastigotes infected in BALB/c mouse model of visceral leishmaniasis assessed as fold change in T-helper type 1 immunological evoke response in splenocytes by measuring increased IFN-gamma cytokine level treated after 3 weeks of infection at 5 mg/kg, ip twice a week for 3 weeks by RT-PCR analysis; assay type: functional
Leishmania donovani [10] = test: (§1) Antileishmanial activity against antimony resistant Leishmania donovani BHU575 promastigotes infected in BALB/c mouse assessed as reduction of amastigote burden by measuring parasite count in liver treated after 3 weeks of infection at 5 to 10 mg/kg, ip twice a week for 3 weeks by qPCR based kineto-plastid DNA; assay type: functional, organism-based; details: dose 5-10 mg/kg
Leishmania donovani [11] = test: Antileishmanial activity in Leishmania donovani BHU575 promastigotes assessed as TUNEL positive cells at 5 uM measured after 24 hrs by confocal microscopic analysis relative to control; assay type: functional
[12] = target: T2, DNA topoisomerase I (Leishmania donovani (strain BPK282A1)); test: Binding affinity to Leishmania donovani topoisomerase I assessed as DNA intercalation by measuring dislodging of bound fluorophore at 200 uM by EtBr displacement assay
[13] = Selectivity index ratio of EC50 for BALB/c mouse macrophage to ratio of EC50 for antileishmanial activity against Leishmania amastigotes; assay type: toxicity; details: mouse macrophages, read-out: Ratio EC50
[14] = target: T2, DNA topoisomerase I (Leishmania donovani (strain BPK282A1)); test: Inhibition of Leishmania donovani topoisomerase I assessed as DNA intercalation using pBluscript (SK+) DNA as substrate at 20 to 200 uM incubated for 15 mins ethidium bromide staining based UV analysis; details: dose 20-200 µM
[15] = Cytotoxicity against BALB/c mouse macrophage assessed as cell viability measured after 48 hrs infection by propidium iodide staining analysis relative to control; assay type: toxicity, cell-based; details: mouse macrophages
Leishmania donovani [16] = test: Induction of apoptosis in Leishmania donovani Ag83 promastigotes assessed as viable cells measured at 5 uM after 12 hrs by Annexin V-FITC/PI staining based flow cytometric analysis (reference value: 99.4%); assay type: functional
Leishmania donovani [17] = test: as §1, with “burden” for “burden by measuring parasite count”, “Giemsa staining stamp-smear” for “qPCR”, “limiting dilution assay” for “kineto-plastid DNA”; assay type: functional, organism-based; details: dose 5-10 mg/kg
[18] = target: T2, DNA topoisomerase I (Leishmania donovani (strain BPK282A1)); test: Binding affinity to topoisomerase I in Leishmania donovani Ag83 whole cell lysate assessed as stabilization of cleavage complex at 5 to 50 uM measured after 30 mins; assay type: subcellular; details: dose 5-50 µM
Leishmania donovani [19] = test: Induction of cell cycle arrest in antimony resistant Leishmania donovani BHU575 promastigotes assessed as decrease in accumulation of cells in G0/G1 phase at 5 uM measured after 24 hrs by PI staining based flow cytometry (reference value: 80.7%); assay type: functional; parameters: scale not given: the % may be the effect or the level left
Leishmania donovani [20] = test: Stabilization of Leishmania donovani recombinant topoisomerase I/25-mer duplex oligonucleotide DNA complex assessed as fold change in stabilization at 5 to 25 uM measured after 30 mins; details: dose 5-25 µM
Leishmania donovani [21] = test: Induction of apoptosis in Leishmania donovani Ag83 promastigotes assessed as DNA break accumulation measured at 5 uM after 24 hrs by TUNEL staining based assay; assay type: functional, organism-based
[22] = target: T2, DNA topoisomerase I (Leishmania donovani (strain BPK282A1)); test: Binding affinity to Leishmania donovani recombinant topoisomerase I assessed as stabilization of cleavage complex at 2.5 to 25 uM measured after 30 mins; details: dose 2.5-25 µM
Leishmania donovani [23] = test: Induction of cell cycle arrest in Leishmania donovani Ag83 promastigotes assessed as decrease in accumulation of cells in G0/G1 phase at 5 uM measured after 6 hrs by PI staining based flow cytometry (reference value: 65.1%); assay type: functional; parameters: scale not given: the % may be the effect or the level left
Leishmania donovani [24] = test: Induction of cell cycle arrest in Leishmania donovani Ag83 promastigotes assessed as decrease in accumulation of cells in S phase at 5 uM measured after 12 hrs by PI staining based flow cytometry (reference value: 18.1%); assay type: functional; parameters: scale not given: the % may be the effect or the level left
Leishmania donovani [25] = test: Induction of apoptosis in Leishmania donovani Ag83 promastigotes assessed as necrotic cells measured at 5 uM after 6 hrs by Annexin V-FITC/PI staining based flow cytometric analysis (reference value: 0.5%); assay type: functional

COc1cc(-c2nc3ccccc3c3nc4ccccn4c23)cc(OC)c1OC
Activity (Leishmania donovani [1]): 70.6%
Activity (Leishmania donovani [2]): Active
IC50 (DNA topoisomerase I): 6.5 µM
inhibition [3]: 85%
Activity (Leishmania donovani [4]): 61%
EC50 (Leishmania donovani [5]): 7.06 µM
Activity (Leishmania donovani [6]): 40.7%
Activity [7]: Non-Toxic
Activity (Leishmania donovani [8]): Active
fold change (FC) (Leishmania donovani [9]): 4
Activity (Leishmania donovani [10]): Active
Activity (Leishmania donovani [11]): 85%
Activity [12]: inactive
selectivity ratio [13]: 9.25
inhibition [14]: inactive
EC50 at 48 h [15]: 50.2 µM
Activity (Leishmania donovani [16]): 2%
Activity (Leishmania donovani [17]): Active
Activity [18]: Active
Activity (Leishmania donovani [19]): 38%
fold change (FC) (Leishmania donovani [20]): 2
Activity (Leishmania donovani [21]): Active
Activity [22]: Active
Activity (Leishmania donovani [23]): 55.3%
Activity (Leishmania donovani [24]): 43.1%
Activity (Leishmania donovani [25]): 23.9%
